# Test results from patent US20250171431A1, “HETEROCYCLIC INHIBITORS OF IGF-1R FOR TREATMENT OF DISEASE” (HORIZON THERAPEUTICS IRELAND DAC, priority 2023, published 2025).
# What was measured:
# [1] = target: T1, IGF-1R (Homo sapiens (Human), UniProt P08069); experiment: Example B-1: IGF-1R Assay (PC3 cells, IGF1 stimulation, AlphaLISA); format: cell-based; settings: 200 ng/mL IGF1 stimulation, read-out: Biological Activity against IGF-1R IC50
# In short: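 PC3 cells were serum-starved 2 h, treated with serially diluted compounds for 2 h, then stimulated with IGF1 (200 ng/mL final) for 30 min. Lysates were read by AlphaLISA; % inhibition was calculated relative to vehicle and EC80 controls, with IC50 values binned into ranges.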
# Target sequence in this assay (P08069 31-1367): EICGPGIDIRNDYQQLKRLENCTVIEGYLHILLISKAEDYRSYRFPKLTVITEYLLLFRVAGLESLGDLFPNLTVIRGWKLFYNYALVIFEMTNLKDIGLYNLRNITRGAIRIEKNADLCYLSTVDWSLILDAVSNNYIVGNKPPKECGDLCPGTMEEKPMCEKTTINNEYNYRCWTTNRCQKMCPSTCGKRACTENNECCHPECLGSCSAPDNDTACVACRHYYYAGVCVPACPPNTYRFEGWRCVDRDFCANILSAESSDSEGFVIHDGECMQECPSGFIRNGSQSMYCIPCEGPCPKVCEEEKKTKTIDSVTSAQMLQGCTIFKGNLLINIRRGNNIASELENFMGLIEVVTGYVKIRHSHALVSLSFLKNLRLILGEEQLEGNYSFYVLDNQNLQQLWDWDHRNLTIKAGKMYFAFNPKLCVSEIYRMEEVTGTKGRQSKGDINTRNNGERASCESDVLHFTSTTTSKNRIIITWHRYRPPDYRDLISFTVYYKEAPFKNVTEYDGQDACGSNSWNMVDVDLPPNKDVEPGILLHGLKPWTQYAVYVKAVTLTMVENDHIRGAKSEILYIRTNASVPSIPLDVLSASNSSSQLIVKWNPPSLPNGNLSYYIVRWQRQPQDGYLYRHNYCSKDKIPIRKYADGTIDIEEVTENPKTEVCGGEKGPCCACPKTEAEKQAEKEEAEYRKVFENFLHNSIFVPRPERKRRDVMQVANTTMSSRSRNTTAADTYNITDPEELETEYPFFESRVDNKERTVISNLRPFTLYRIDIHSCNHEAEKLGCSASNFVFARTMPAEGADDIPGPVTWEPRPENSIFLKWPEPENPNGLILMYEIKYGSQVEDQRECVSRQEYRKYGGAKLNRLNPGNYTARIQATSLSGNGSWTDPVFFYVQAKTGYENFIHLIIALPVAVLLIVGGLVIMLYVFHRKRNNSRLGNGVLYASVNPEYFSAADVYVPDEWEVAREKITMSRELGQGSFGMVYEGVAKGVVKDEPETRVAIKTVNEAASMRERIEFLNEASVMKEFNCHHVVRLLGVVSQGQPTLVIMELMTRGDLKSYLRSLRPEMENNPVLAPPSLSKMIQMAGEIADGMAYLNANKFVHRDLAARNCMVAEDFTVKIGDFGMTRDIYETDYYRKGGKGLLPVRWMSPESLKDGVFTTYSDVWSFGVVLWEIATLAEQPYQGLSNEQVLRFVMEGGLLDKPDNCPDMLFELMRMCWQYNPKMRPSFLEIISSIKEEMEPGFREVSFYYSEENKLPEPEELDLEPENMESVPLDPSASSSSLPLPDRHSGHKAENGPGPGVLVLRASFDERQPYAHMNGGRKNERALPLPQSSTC
# [2] = target: T1, IGF-1R; experiment: Example B-2: IGF-1R Assay (PathHunter cell lines, EC80 agonist challenge); format: cell-based; settings: read-out: IC50 (Biological Activity against IGF-1R)
# Method: PathHunter cell lines were expanded from freezer stocks according to standard procedures. Cells were seeded in a total volume of 20 μL into white walled, 384-well microplates and incubated for the appropriate time prior to testing.
# Cells are pre-incubated with compound followed by EC80 agonist challenge as follows: • 1. Intermediate dilution of sample stocks was performed to generate 5× sample in assay buffer. • 2. 5 μL of 5× sample was added to cells and incubated at 37° C. for 60 minutes. Vehicle concentration was 1%. • 3. 5 μL of 6×EC80 agonist in assay buffer was added to the cells and incubated at room temperature for 3 hours.
# Assay signal was generated through a single addition of 12.5 or 15 μL (50% v/v) of PathHunter Detection reagent cocktail for agonist and antagonist assays respectively, followed by a one hour incubation at room temperature. Microplates were read following signal generation with a PerkinElmer Envision™ instrument for chemilumine-scent signal detection.
# Compound activity was analyzed using CBIS data analysis suite (ChemInnovation, CA). Percentage inhibition was calculated using the following formula: % Inhibition=100%×(1−(mean RLU of test sample−mean RLU of vehicle control)/(mean RLU of EC80 control−mean RLU of vehicle control)). The activity for representative examples of the invention is shown in the following table, wherein A: IC50≤500 nM; B: 500 nM<IC50≤2 μM; C: […]≤10 μM; D: IC50>[…].
# Target sequence in this assay (P08069 31-1367, species assumed): as the sequence (P08069 31-1367) above
IC50 [1] [nM],IC50 [2] [nM],Structure (SMILES)
≤ 500,≤ 500,"COc1cc(Nc2nccc(Nc3cnc4ccc(Cl)cc4c3)n2)ccc1OCCCN1CCCCC1 [Compound 196, 4-(6-chloro-3-quinolylamino)-2-[3-methoxy-4-(3-piperidinopropoxy)phenylamino]pyrimidine]"
≤ 500,500 to 2000,"COc1cc(N2CCNC3(CC3)C2)ncc1Nc1nccc(Nc2cc3cccc(F)c3[nH]c2=O)n1 [Compound 221, 3-(2-{6-(4,7-diaza-7-spiro[2.5]octyl)-4-methoxy-3-pyridylamino}-4-pyrimidinylamino)-8-fluoro-1,2-dihydro-2-quinolinone]"
500 to 2000,500 to 2000,"c1ccc2ncc(Nc3ccnc(Nc4ccc5c(ccn5CC5CCOCC5)c4)n3)cc2c1 [Compound 501, 4-(3-quinolylamino)-2-{1-[(tetrahydro-2H-pyran-4-yl)methyl]-5-indolylamino}pyrimidine]"
500 to 2000,500 to 2000,"CN(C)CC(=O)N1CCc2cc(Nc3nccc(Nc4cnc5cc(F)c(F)cc5c4)n3)cnc21 [Compound 498, 1-{5-[4-(6,7-difluoro-3-quinolylamino)-2-pyrimidinylamino]-1,7-diaza-1-indanyl}-2-(dimethylamino)-1-ethanone]"
≤ 500,≤ 500,"COc1cc(Nc2nccc(Nc3cnc4ccccc4c3)n2)ccc1N1CCC(N2CCOCC2)CC1 [Compound 3, 2-[3-methoxy-4-(4-morpholino-1-piperidyl)phenylamino]-4-(3-quinolylamino)pyrimidine]"
≤ 500,≤ 500,"CN(C)CC(=O)N1CCc2cc(Nc3nccc(Nc4cnc5ccc(Cl)cc5c4)n3)ccc21 [Compound 146, 1-(5-((4-((6-chloroquinolin-3-yl)amino)pyrimidin-2-yl)amino)indolin-1-yl)-2-(dimethylamino)ethan-1-one]"
≤ 500,≤ 500,"CN(C)CC1COc2cc(Nc3nccc(Nc4cnc5ccc(Cl)cc5c4)n3)ccc2O1 (stereo not shown) [Compound 136, N4-(6-chloroquinolin-3-yl)-N2-(2-((dimethylamino)methyl)-2,3-dihydrobenzo[b][1,4]dioxin-6-yl)pyrimidine-2,4-diamine]"
500 to 2000,500 to 2000,"CN(C)CC1COc2ccc(Nc3nccc(Nc4cnc5ccc(Cl)cc5c4)n3)cc2O1 (stereo not shown) [Compound 142, N4-(6-chloroquinolin-3-yl)-N2-(3-((dimethylamino)methyl)-2,3-dihydrobenzo[b][1,4]dioxin-6-yl)pyrimidine-2,4-diamine]"
≤ 500,500 to 2000,"COc1nc(C2CCN(CC#N)CC2)ccc1Nc1nccc(Nc2cc3cccc(F)c3[nH]c2=O)n1 [Compound 212, (4-{5-[4-(8-fluoro-2-oxo-1,2-dihydro-3-quinolylamino)-2-pyrimidinylamino]-6-methoxy-2-pyridyl}-1-piperidyl)acetonitrile]"
2000 to 10000,,"c1cc(Nc2cnc3cc(C4CC4)ccc3c2)nc(Nc2ccc(OCCCN3CCOCC3)cc2)n1 [Compound 405, 4-(7-cyclopropyl-3-quinolylamino)-2-[p-(3-morpholinopropoxy)phenylamino]pyrimidine]"

# The remaining lines, values behind:
Structure (SMILES),IC50 [1] [nM],IC50 [2] [nM]
"COc1cc(Nc2nccc(Nc3cnc4cc(F)c(F)cc4c3)n2)c(Cl)cc1O[C@H]1C[C@@H](N(C)C)C1 [Compound 153, N2-(2-chloro-4-((1s,3s)-3-(dimethylamino)cyclobutoxy)-5-methoxyphenyl)-N4-(6,7-difluoroquinolin-3-yl)pyrimidine-2,4-diamine]",≤ 500,≤ 500
"Clc1ccc2ncc(Nc3ccnc(Nc4ccc5c(c4)OCCO5)n3)cc2c1 [Compound 170, 4-(6-chloro-3-quinolylamino)-2-(2,3-dihydro-1,4-benzodioxin-6-ylamino)pyrimidine]",500 to 2000,500 to 2000
"COc1cc(Nc2nccc(Nc3cnc4c(c3)OCCO4)n2)ccc1O[C@H]1C[C@H](N(C)C)C1 [Compound 357, 4-(2,3-dihydro-1,4-dioxa-5-aza-7-naphthylamino)-2-{3-methoxy-4-[(1r,3r)-3-(dimethylamino)cyclobutoxy]phenylamino}pyrimidine]",≤ 500,≤ 500
"COc1cc(N2CCN(CC(F)F)CC2)ncc1Nc1nccc(Nc2cc3cccc(F)c3[nH]c2=O)n1 [Compound 217, 3-(2-{6-[4-(2,2-difluoroethyl)-1-piperazinyl]-4-methoxy-3-pyridylamino}-4-pyrimidinylamino)-8-fluoro-1,2-dihydro-2-quinolinone]",500 to 2000,> 10000
"COc1cc(Nc2nccc(Nc3cnc4ccccc4c3)n2)ccc1O[C@H]1C[C@@H](N(C)C)C1 [Compound 204, 2-{3-methoxy-4-[(1s,3s)-3-(dimethylamino)cyclobutoxy]phenylamino}-4-(3-quinolylamino)pyrimidine]",≤ 500,≤ 500
"COc1cc(Nc2nccc(Nc3cnc4c(Cl)cc(F)cc4c3)n2)ccc1O[C@H]1C[C@@H](N(C)C)C1 [Compound 116, 4-(8-chloro-6-fluoro-3-quinolylamino)-2-{3-methoxy-4-[(1s,3s)-3-(dimethylamino)cyclobutoxy]phenylamino}pyrimidine]",≤ 500,500 to 2000
"CN(C)CC1COc2ccc(Nc3nccc(Nc4cnc5ccccc5c4)n3)cc2O1 (stereo not shown) [Compound 140, N2-(3-((dimethylamino)methyl)-2,3-dihydrobenzo[b][1,4]dioxin-6-yl)-N4-(quinolin-3-yl)pyrimidine-2,4-diamine]",≤ 500,≤ 500
"CN(C)CC1CN(C)c2cc(Nc3nccc(Nc4cnc5cc(F)c(F)cc5c4)n3)ccc2O1 (stereo not shown) [Compound 148, N4-(6,7-difluoroquinolin-3-yl)-N2-(2-((dimethylamino)methyl)-4-methyl-3,4-dihydro-2H-benzo[b][1,4]oxazin-6-yl)pyrimidine-2,4-diamine]",≤ 500,≤ 500
"CN(C)CC(=O)N1CCc2ccc(Nc3nccc(Nc4cnc5c(F)c(F)ccc5c4)n3)cc21 [Compound 138, 1-(6-((4-((7,8-difluoroquinolin-3-yl)amino)pyrimidin-2-yl)amino)indolin-1-yl)-2-(dimethylamino)ethan-1-one]",≤ 500,≤ 500
"COc1cc(Nc2nccc(Nc3cc4cccc(F)c4[nH]c3=O)n2)cnc1C1CCNCC1 [Compound 223, 8-fluoro-3-{2-[5-methoxy-6-(4-piperidyl)-3-pyridylamino]-4-pyrimidinylamino}-1,2-dihydro-2-quinolinone]",≤ 500,500 to 2000
"COc1cc(N2CCNC(C(F)F)C2)ncc1Nc1nccc(Nc2cc3cccc(F)c3[nH]c2=O)n1 (stereo not shown) [Compound 218, 3-(2-{6-[3-(difluoromethyl)-1-piperazinyl]-4-methoxy-3-pyridylamino}-4-pyrimidinylamino)-8-fluoro-1,2-dihydro-2-quinolinone]",≤ 500,500 to 2000
"COc1cc(Nc2nccc(Nc3cc4ccccc4nc3C(N)=O)n2)ccc1O[C@H]1C[C@@H](N(C)C)C1 [Compound 297, 3-(2-{3-methoxy-4-[(1s,3s)-3-(dimethylamino)cyclobutoxy]phenylamino}-4-pyrimidinylamino)-2-quinolinecarboxamide]",,500 to 2000
"c1ccc2ncc(Nc3ccnc(Nc4ccc(O[C@H]5C[C@@H](N6CCCCC6)C5)cc4)n3)cc2c1 [Compound 363, 4-(3-quinolylamino)-2-{p-[(1s,3s)-3-piperidinocyclobutoxy]phenylamino}pyrimidine]",≤ 500,
